Test results: patent US4443619A, “Chlorocitric acids” (Hoffmann-La Roche Inc., priority 1981, dated 1984)

Key:
[1] = system: fatty acid and cholesterol syntheses; assay: Inhibition of fatty acid, lipid and cholesterol synthesis (summary statements)
Stomach Emptying = assay: Effect on stomach emptying ([14C]glucose load) in rats (Example 25); assay type: in vivo
Description: Rats were trained to consume a 3 hr 70% glucose meal from 8 a.m. to 11 a.m. daily. On the experimental day, compounds were administered orally by intubation 30 min before a [^14 C]glucose load was given also by intubation. […] Sixty minutes later the rats were killed by decapitation; blood and stomachs were collected on ice.
Data are expressed as follows: dpm×10^3 per ml of serum and dpm×10^3 per stomach.

Fatty Acid Synthesis = assay: Fatty acid synthesis in pair-feeding experiments in rats (Example 24); assay type: in vivo, female rats of the Charles River CD strain
Description: Female rats of the Charles River CD strain (Charles River Breeding Laboratories, Wilmington, Mass.) weighing 120-160 g (ca. […] old) were housed individually in wire-bottomed cages in a temperature-regulated (22 C.), light-controlled room (12 hour light 6 A.M.-6 P.M., and dark 6 P.M.-6 A.M.). They had free access to water and were fed a commercial diet (Purina Rodent Chow, Ralston Purina Co., St. Louis, Mo.) ad libitum for at least 1 week prior to the experiment. Animals were fasted 48 hours, then meal-fed a synthetic diet (G-70) daily from 8-11 A.M. for the remainder of the experiment. Food consumption and body weight were measured during the meal-feeding period. […] Food spillage was measured daily.
Each group consisted of 8 to 10 (140 to 160 g) rats. Food intake was monitored for a 3 day period; the animals were dosed immediately before the 3 hr meal. Pair-fed animals were fed the amount of food which the drug treated groups ate on the previous days (days 2 and 3).
Immediately after the 3 hour feeding period, rats were administered intravenously a 0.25 ml saline (pH 7.4 to 7.6) solution with the following composition: 12.3 mg alanine, 5 μCi [^14 C] alanine (specific activity=156 mCi/mmole), 30.6 mg-ketoglutarate (as an amine acceptor for transaminase) and 1 mCi [^3 H] water (specific activity=100 mCi/g). […] [^3 H] Water was employed to determine the total rate of lipogenesis, since tritium is incorporated into fatty acids independent of the source of carbon precursors. Animals were killed by decapitation and blood collected in centrifuge tubes 30 minutes after the radioactive pulse, unless otherwise indicated. The specific radioactivity of the body water of each rat was determined by counting a diluted serum aliquot in 10 ml following cocktail: toluene (2.41), 2-methoxyethanol (1.61), naphthalene (320 g), and BBOT (2,5-bis-2-(5-tert-butylbenzoxazolyl)-thiophene, 16 g). Liver, and small intestine was excised rapidly, weighed, and homogenized in 15 ml H2 O in a Virtis 45 Macro Homogenizer for 15 sec at ca. 30,000 rpm. Duplicate 3 ml aliquots of whole homogenates were saponified, extracted, and the absolute radioactivity (dpm) determined. Liver lipids were extracted totally or separated into fatty acids and cholesterol by anion exchange chromatography. It was determined by anion exchange chromatography that the total lipid extract of liver contained fatty acids (96-97%) and cholesterol (3-4%). Data are expressed as nmoles [^14 C] alanine or μ moles [^3 H] water converted into lipid/g tissue/30 minutes. The nmoles [^14 C] alanine were calculated according to the injected load of alanine, as reported previously by A. C. Sullivan et al., Arch. Biochem. and Biophys., 150, 183 (1972). The μ moles [^3 H] water were determined as described previously by A. C. […]

[2] = Comparative anorectic activity: food consumption in meal-fed rats (acute, Example 13); assay type: in vivo, Charles River female rats; settings: 3 hr meal, mean ± S.E.
Description: Charles River female rats (Charles River Breeding Laboratories, Wilmington, Mass.), weighing 150 to 175 g, were individually housed in wire-bottomed cages in a temperature-regulated (22° C.) light-controlled room (12 hr light, 6 a.m. to 6 p.m. and 12 hr dark, 6 p.m. to 6 a.m.). Animals were fasted 48 hr, then meal-fed the 70% glucose diet described by A. C. Sullivan, et al., J. Nutrition, 101, 265 (1971) from 8 to 11 a.m. Following 5 to 13 days alimentation on the meal-feeding regimen, rats were dosed with the appropriate compounds orally by intubation 1/2 hr before the 3 hr meal. Food cups were weighed immediately after the meal. The control group consists of 31 rats while each drug treated group consists of 5 to 12 rats.
The G-70 diet consisted of 70% glucose, 23% vitamin-free casein, 5% Phillips and Hart salt mixture IV, 1% corn oil, 1% complete vitamin mixture, and 40 g/kg cellulose. To ensure complete uniformity, all diets were mixed with a twen-shell dry blender equipped with an itensifier bar (Patterson-Kelly Co., East Stroudsburg, Pa.).

[3] = Anorectic effect in 8 hour meal-fed Zucker rats (Example 17); assay type: in vivo, lean (Fa/-) and obese (fa/fa)
Description: Lean (Fa/-) Zucker rats and obese (fa/fa) Zucker rats of both sexes were individually housed in wire-bottomed cages in a temperature-regulated (22° C.) light-controlled room (12 hr light, 6 a.m. to 6 p.m. and 12 hr dark, 6 p.m. 6 a.m.). The animals were fed a high carbohydrate (70% glucose) diet ad libitum for 13 days, dosed with the indicated compounds by oral intubation for 9 days and allowed to recover for 3 days. The animals were then meal fed from 8 a.m. to 4 p.m. for a period of 5 days, following which they were continued on the same meal schedule for an additional 6 days. During the 6-day period, the animals were administered the indicated compounds by oral intubation at 8 a.m. and 12 p.m. Food cups were weighed immediately after the meal.

[4] = Body weight gain in 8 hour meal-fed Zucker rats (Example 18); assay type: in vivo, lean (Fa/-) and obese (fa/fa); settings: 1.32 mmoles/kg b.i.d. oral, 6 days, mean ± S.E.
Description: Lean (Fa/-) Zucker rats and obese (fa/fa) Zucker rats of both sexes were individually housed in wire-bottomed cages in a temperature-regulated (22° C.) light-controlled room (12 hr light, 6 a.m. to 6 p.m. and 12 hr dark, 6 p.m. to 6 a.m.). The animals were fed a high carbohydrate (70% glucose) diet ad libitum for 13 days, dosed with the indicated compounds by oral intubation for 9 days and allowed to recover for 3 days. The animals were then meal fed from 8 a.m. to 4 p.m. for a period of 5 days, following which they were continued on the same meal schedule for an additional 6 days. During the 6-day period, the animals were administered the indicated compounds by oral intubation at 8 a.m. and 12 p.m. Body weight gain during the 6-day period was determined.

[5] = Food intake in dogs, pyramiding oral doses (Examples 26 and 27); assay type: in vivo, beagle dogs
Description: Twelve beagle dogs of both sexes weighing 7.6-12.2 kg were used for this test. The test compounds were contained in gelatin capsules for oral administration to two dogs of each sex. The animals were weighed and food consumption calculated daily excluding weekends throughout the test period. Each animal received 800 grams of diet daily consisting of 400 grams of Wayne pellet dog food mixed with 400 ml distilled water. The animals received pyramiding oral doses of the test compound over the three week period. On Monday and Tuesday of the first week the animals were weighed and food consumption was recorded (control). The animals received 3 mg/kg on Wednesday and 10 mg/kg on Friday of the first week. Doses of 30, 100 and 300 mg/kg were administered on Monday, Wednesday and Friday respectively during the second week. A final dose of 1000 mg/kg was administered on Monday of the third week.
Food intake was determined by the procedure by pyramiding doses described in Example 26.

[6] = 0.33 mmoles/kg oral, 60 min after [14C]glucose load, mean ± S.E.
[7] = test day 20, no dose, (±) one animal, (+) and (-) two animals

O=C(O)CC(O)(C(=O)O)C(O)C(=O)O (single isomer, unassigned) [hydroxycitric acid, reference compound]
metabolic activity on lipid (fatty acid) and cholesterol syntheses [1]: inhibition of fatty acid and cholesterol syntheses
delay in gastric emptying (Stomach Emptying; comparable doses): delayed gastric emptying

O=C(O)C[C@@](O)(C(=O)O)[C@H](O)C(=O)O [Trisodium (-)-threo-hydroxycitrate, reference compound]
Fatty Acid Synthesis, 3H2O converted (Fatty Acid Synthesis; 2.63 mmoles/kg, pair-fed control 21.3 ± 2.3): 14.4 ± 1.6 μmoles ^3 H2 O converted/g liv
Fatty Acid Synthesis, [14C]alanine converted (Fatty Acid Synthesis; 2.63 mmoles/kg, pair-fed control 714 ± 86): 279 ± 36 nmoles [^14 C]alanine converte
Food consumption ([2]; 0.33 mmoles/kg oral): 11.5 ± 0.7 g
Food consumption ([2]; 0.66 mmoles/kg oral): 9.0 ± 0.6 g
Food consumption ([2]; 1.32 mmoles/kg oral): 9.9 ± 1.0 g
Food consumption ([2]; 2.63 mmoles/kg oral): 8.9 ± 0.8 g
Serum, total per ml (Stomach Emptying; [6]): 4.5 ± 0.3 dpm × 10^3
Stomach Contents, total per stomach (Stomach Emptying; [6]): 1973 ± 154 dpm × 10^3

O=C(O)C[C@@](O)(C(=O)O)[C@@H](Cl)C(=O)O (relative stereo) [(±)-threo-Chlorocitric acid]
Fatty Acid Synthesis, 3H2O converted (Fatty Acid Synthesis; 1.32 mmoles/kg, pair-fed control 25.6 ± 3.9): 21.4 ± 1.6 μmoles ^3 H2 O converted/g liv
Fatty Acid Synthesis, [14C]alanine converted (Fatty Acid Synthesis; 1.32 mmoles/kg, pair-fed control 639 ± 69): 809 ± 67 nmoles [^14 C]alanine converte
Food consumption ([2]; 0.08 mmoles/kg oral): 6.4 ± 0.6 g
Food consumption ([2]; 0.17 mmoles/kg oral): 6.8 ± 0.7 g
Food consumption ([2]; 0.33 mmoles/kg oral): 5.7 ± 0.5 g
Food consumption ([2]; 0.66 mmoles/kg oral): 3.9 ± 0.3 g
Food consumption ([2]; 1.32 mmoles/kg oral): 3.1 ± 0.4 g
Food consumption ([2]; 2.63 mmoles/kg oral): 3.8 ± 0.3 g
Daily Food Consumption ([3]; Fa/- lean, 1.32 mmoles/kg oral, treatment day 1): 11.6 ± 0.8 g
Daily Food Consumption ([3]; Fa/- lean, 1.32 mmoles/kg oral, treatment day 2): 7.5 ± 0.8 g
Daily Food Consumption ([3]; Fa/- lean, 1.32 mmoles/kg oral, treatment day 3): 8.6 ± 1.3 g
Daily Food Consumption ([3]; Fa/- lean, 1.32 mmoles/kg oral, treatment day 4): 6.9 ± 1.0 g
Daily Food Consumption ([3]; Fa/- lean, 1.32 mmoles/kg oral, treatment day 5): 6.1 ± 0.7 g
Daily Food Consumption ([3]; Fa/- lean, 1.32 mmoles/kg oral, treatment day 6): 7.2 ± 1.0 g
Daily Food Consumption ([3]; Fa/- lean, 1.32 mmoles/kg, day 0 (pretreatment)): 12.3 ± 0.7 g
Daily Food Consumption ([3]; fa/fa obese, 1.32 mmoles/kg oral, treatment day 1): 13.1 ± 0.9 g
Daily Food Consumption ([3]; fa/fa obese, 1.32 mmoles/kg oral, treatment day 2): 7.8 ± 0.8 g
Daily Food Consumption ([3]; fa/fa obese, 1.32 mmoles/kg oral, treatment day 3): 6.6 ± 0.2 g
Daily Food Consumption ([3]; fa/fa obese, 1.32 mmoles/kg oral, treatment day 4): 5.9 ± 0.8 g
Daily Food Consumption ([3]; fa/fa obese, 1.32 mmoles/kg oral, treatment day 5): 4.6 ± 1.1 g
Daily Food Consumption ([3]; fa/fa obese, 1.32 mmoles/kg oral, treatment day 6): 5.3 ± 1.3 g
Daily Food Consumption ([3]; fa/fa obese, 1.32 mmoles/kg, day 0 (pretreatment)): 14.3 ± 0.8 g
Body Weight Gain ([4]; Fa/- lean): -22.9 ± 2.9 g
Body Weight Gain ([4]; fa/fa obese): -27.9 ± 4.6 g
Food Consumption, % of control [5, 7]: 167 % of control
Food consumption [5, 7]: 800 g
Food consumption ([5]; test days -2, -1, before dosing (control period)): 479 ± 96 g
